Laboratory results reported in US10327423B2, “Antimicrobial compounds and compositions, and uses thereof” (Akeso Biomedical, Inc., priority 2014, dated 2019).
“Also recorded” adds a separate entry of the source.

Experiments:
[1] = test system: PAO-1 strains of Pseudomonas aeruginosa; experiment: Biofilm formation on contact lenses (ESEM); assay type: cell-based; settings: FeQ 340 μM in LB; 37° C.; 24 hours
Procedure: To investigate biofilm formation on the contact lens, clinically determined PAO-1 strains of Pseudomonas aeruginosa were incubated with the lenses in either Luria-Bertani Media (LB) or LB with a final concentration of 340 μM FeQ at 37° C. for 24 hours in a non-shaking incubator. The lenses were then washed 6 times with PBS+0.05% Tween, before being stored overnight in PBS+0.05% Tween. In preparation for the ESEM, formaldehyde was added to a final concentration of 1% and incubated for 10 minutes in order to inactivate the bacteria. The lenses were then washed 4 times with PBS+0.05% Tween, and immediately before analysis the lenses were washed a further two times with distilled water.

[2] = test system: Pseudomonas aeruginosa (PAO-1 Clinical); experiment: Growth curve of antibiotic resistant clinical isolate with kanamycin and FeQ; assay type: cell-based; settings: kanamycin and FeQ added to growth media
Procedure: The impact on the growth curve of an antibiotic resistant clinical isolate of Pseudomonas aeruginosa (PAO-1 Clinical) grown in the presence of kanamycin and FeQ versus the clinical isolate grown in the presence of (i) FeQ, (ii) kanamycin or (iii) without addition of FeQ or kanamycin (control) was assessed.

[3] = test system: Campylobacter jejuni NCTC 11168 (wildtype and strain carrying a kanamycin resistance gene); experiment: Patch test on growth plates with Fe-QA and kanamycin; assay type: cell-based
Text: The wildtype C. jejuni grew normally, and was not affected by FeQ. A patch was also immersed in a solution of kanamycin and Fe-QA, and placed on a growth plate of wildtype C. jejuni. The growth of C. jejuni was impacted showing that wildtype C. jejuni is sensitive to the presence of kanamycin.
The patch experiments were repeated with a Campylobacter jejuni NCTC 11168 strain carrying a kanamycin resistance gene wherein patches were immersed in (i) kanamycin only, (ii) Fe-QA only, and (iii) kanamycin and Fe-QA. The growth of the C. jejuni strain carrying the kanamycin resistance gene was not impacted by the patches immersed in (i) kanamycin and (ii) Fe-QA, however, the growth was impacted by the patch that was immersed in both kanamycin and Fe-QA.

[4] = test system: H. pylori CCUG 17875; experiment: H. pylori attachment to human gastric tissue sections (FITC-labelled bacteria); assay type: cell-based, Helicobacter pylori; settings: Fe-QA 1 mM and 0.2 mM; 1 hour at room temperature
Procedure: The ability of H. pylori CCUG 17875 to bind to samples of human gastric tissue in the presence of Lewis b antigen, Le^b, and two concentrations of Fe-QA (1 mM and 0.2 mM) was measured. Binding was quantified by fluorescence using H. pylori that had been labeled with fluorescein using FITC (fluorescein isothiocyanate), and human gastric tissue that was embedded in […]. The bacteria were suspended in blocking buffer (1% BSA in PBS) and applied to re-hydrated histo-sections of human gastric tissue. Binding was assessed microscopically, and quantified as the average number of bacteria bound to the tissue.

[5] = test system: H. pylori strain 17875; experiment: Binding of I-125 labelled Le^b to H. pylori (bound/free); design: species or system Helicobacter pylori; settings: increasing Fe-QA concentration; pH 7.4
Procedure: Binding of Le^b to H. pylori strain 17875 at pH 7.4 was assayed by labeling Le^b with radioactive iodine (1-125), mixing the radioactive antigen with H. pylori bacteria, pelletizing the bacteria using a centrifuge, and measuring the radioactivity in the pellet and in the supernatant. Any Le^b that is bound to the bacteria is quantified by the measurement of radioactivity in the pellet. The ratio of the radioactivity in the pellet to the supernatant therefore corresponds to the ratio of Le^b bound by the bacteria to that which remains unbound, expressed as bound/free.

[6] = test system: Pseudomonas aeruginosa; experiment: Planktonic growth rate in RPMI-1640; assay type: cell-based; settings: Fe-QA 100 μM
Procedure: The growth rate of Uropathogenic E. coli UPEC-536 in RPMI-1640 media over a period of 24 hours was compared to the growth rate of UPEC in RPMI-1640 media, but in the presence of 100 μM Fe-QA. The growth rate of Pseudomonas aeruginosa in RPMI-1640 media was also compared to the growth rate of Pseudomonas aeruginosa in RPMI-1640 media, but in the presence of 100 μM Fe-QA.

[7] = test system: Pseudomonas aeruginosa PAO-1; experiment: Biofilm coverage rate on glass slides (SYTO17, laser scanning microscopy); assay type: cell-based; settings: Fe-QA 100 μM; 72 hours
Procedure: (§1) Pseudomonas aeruginosa PAO-1, and a clinically isolated uropathogenic Escherichia coli UPEC-536 were routinely grown on either LB (Luria-Bertani, Oxoid, UK) agar plates at 37° C. or in broth at 37° C. with 200 rpm shaking. UV-sterilized glass slides were incubated in either 15 mL RPMI-1640 defined medium (Sigma, UK) or 15 mL RPMI-1640 with Fe-QA inoculated with diluted (OD600=0.01) bacteria from overnight cultures at 37° C. with 60 rpm shaking for 72 hours. The slides were removed from bacterial culture and washed with 15 mL phosphate buffered saline at room temperature for 5 minutes three times and then rinsed with distilled H2O. After washing, the slides were stained with 20 μM SYTO17 dye (Invitrogen, UK) at room temperature for 30 minutes. After removing excess staining dye and air-drying, the samples were examined using a Carl Zeiss LSM 700 Laser Scanning Microscope with ZEN 2009 imaging software (Carl Zeiss, Germany). The coverage rate of bacteria on the surface was analysed using open source Image J 1.44 software (National Institute of Health, US).

[8] = test system: uropathogenic Escherichia coli UPEC-536; experiment: as above; assay type: cell-based; settings: Fe-QA 0.1 μM, 1 μM, aM and 100 μM; 72 hours
Procedure: as §1

[9] = test system: Psuedomonas aeruginosa (PAO1N); experiment: Growth (OD600) in LB with Amikacin, tolerance to antibiotic; assay type: cell-based, Pseudomonas aeruginosa; settings: 34, 100, 200 and 340 μM of FeQ or FePhe; Amikacin 10 µg/ml; 17.5 hours at 37° C.
Procedure: (§2) To investigate effects upon antibiotic resistance, a laboratory strain of Psuedomonas aeruginosa (PAO1N) and a mixed population of clinical isolates (PAO Mixed) were incubated in Luria-Bertani (LB) media alone, or with different concentrations (34 μM, 100 μM, 200 μM and 340 μM) of FeQ or FePhe.
(§3) Each of the different media, bar one control, contained 10 µg/ml of the aminoglycoside antibiotic Amikacin.
(§4) 10 μl of the bacterial strains were added into each well of a 96-well micro-titer plate, before 290 μl of the relevant media was added to wells. Each different condition was repeated in sextuplicate.
(§5) The plate was incubated at 37° C. within a micro-titer plate reader for 17.5 hours, with the OD600 read every 30 minutes.

[10] = test system: mixed population of clinical isolates (PAO Mixed); experiment: as above; assay type: cell-based, Pseudomonas aeruginosa; settings: 34, 100, 200 and 340 μM of FeQ or FePhe; Amikacin 10 µg/ml; 17.5 hours at 37° C.
Procedure: as §2, §3, §4, §5

Compound: O=C1[O][Fe]23([O]C(=O)[C@]4(C[C@@H](O)[C@H](O)[C@H](O)C4)[O]2)([O]C(=O)[C@]2(C[C@@H](O)[C@H](O)[C@H](O)C2)[O]3)[O][C@@]12C[C@@H](O)[C@H](O)[C@H](O)C2 [FeQ, a complex of quinic acid with Fe III]
- biofilm formation on contact lens (ESEM) [1]: inhibits biofilm formation
- growth rate versus kanamycin or FeQ alone [2]: large reduction in the growth rate
- growth rate versus kanamycin or FeQ alone ([2]; listed as Fe-QA): retarded
- growth on plate around patch ([3]; strain carrying kanamycin resistance gene, patch with Fe-QA only): not impacted
- growth on plate around patch ([3]; strain carrying kanamycin resistance gene, patch with kanamycin and Fe-QA): retarded; also recorded: impacted
- growth on plate around patch ([3]; wildtype C. jejuni (no kanamycin resistance gene), patch with Fe-QA alone): not affected
- growth on plate around patch ([3]; wildtype C. jejuni, patch with kanamycin and Fe-QA): impacted
- binding of H. pylori to human gastric tissue [4]: significantly reduced
- competitive inhibition of Le^b binding to H. pylori (bound/free Le^b) [5]: increasingly inhibits binding
- planktonic growth rate [6]: does not inhibit the growth
- biofilm formation (coverage rate on glass slide) [7]: inhibits
- biofilm formation (coverage rate on glass slide) [8]: inhibits
- tolerance to the aminoglycoside Amikacin (OD600 growth) [9]: reducing tolerance
- tolerance to the aminoglycoside Amikacin (OD600 growth) [10]: reducing tolerance
